In US20070244154A1, “Substituted Tricyclic Benzimidazoles” (Altana Pharma AG, priority 2004, published 2007):

Tested on: pentagastrin-stimulated acid secretion of the perfused rat stomach
Test: Secretion-inhibiting action on the perfused rat stomach
Settings: anesthetized female CD rat, dose 3 μmol/kg i.d. (intraduodenal)
Text: Testing of the Secretion-Inhibiting Action on the Perfused Rat Stomach
In Table A which follows, the influence of the compounds of the formula 1 according to the invention on the pentagastrin-stimulated acid secretion of the perfused rat stomach after intraduodenal admnistation in vivo is shown.
The abdomen of anesthetized rats (CD rat, female, 200-250 g; 1.5 g/kg i.m. urethane) was opened after tracheotomy by a median upper abdominal incision and a PVC catheter was fixed transorally in the esophagus and another via the pylorus such that the ends of the tubes just projected into the gastric lumen. The catheter leading from the pylorus led outward into the right abdominal wall through a side opening.
After thorough rinsing (about 50-100 ml), warm (37° C.) physiological NaCl solution was continuously passed through the stomach (0.5 ml/min, pH 6.8-6.9; Braun-Unita I). The pH (pH meter 632, glass electrode EA 147; φ=5 mm, Metrohm) and, by titration with a freshly prepared 0.01N NaOH solution to pH 7 (Dosimat 665 Metrohm), the secreted HCl were determined in the effluent in each case collected at an internal of 15 minutes.
The gastric secretion was stimulated by continuous infusion of […] (=1.65 ml/h) of i.v. pentagastrin (left femoral vein) about 30 min after the end of the operation (i.e. after determination of 2 preliminary fractions). The substances to be tested were administered intraduodenally in a 2.5 ml/kg liquid volume 60 min after the start of the continuous pentagastrin infusion. The body temperature of the animals was kept at a constant 37.8-38° C. by infrared irradiation and heat pads (automatic, stepless control by means of a rectal temperature sensor).

| SMILES | inhibition in vivo at 3 µmol/kg |
| --- | --- |
| CNC(=O)c1cc2c(nc(C)n2C)c2c1[C@H](O)[C@H](O)[C@@H](c1ccccc1)N2 [Example 1, (6S,7R,8R)-[6,7,8,9-Tetrahydro-6,7-dihydroxy-2,3-dimethyl-8-phenyl-3H-imidazo[4,5-h]quinoline-5-yl]-carboxylic acid methylamide] | > 15% |
| CNC(=O)c1cc2c(nc(C)n2C)c2c1[C@@H](O)[C@H](O)[C@@H](c1ccccc1)N2 [Example 2, (6R,7R,8R)-[6,7,8,9-Tetrahydro-6,7-dihydroxy-2,3-dimethyl-8-phenyl-3H-imidazo[4,5-h]quinoline-5-yl]-carboxylic acid methylamide] | > 15% |
| CCCCO[C@H]1c2c(C(=O)NC)cc3c(nc(C)n3C)c2N[C@H](c2ccccc2)[C@H]1O [Example 3, (6S,7R,8R)-[6-n-butyloxy-6,7,8,9-tetrahydro-7-hydroxy-2,3-dimethyl-8-phenyl-3H-imidazo[4,5-h]quinoline-5-yl]-carboxylic acid methylamide] | > 15% |
| CCCCO[C@@H]1c2c(C(=O)NC)cc3c(nc(C)n3C)c2N[C@H](c2ccccc2)[C@H]1O [Example 4, (6R,7R,8R)-[6-n-butyloxy-6,7,8,9-tetrahydro-7-hydroxy-2,3-dimethyl-8-phenyl-3H-imidazo[4,5-h]quinoline-5-yl]-carboxylic acid methylamide] | > 15% |
| C#CCO[C@H]1c2c(C(=O)NC)cc3c(nc(C)n3C)c2N[C@H](c2ccccc2)[C@H]1O [Example 7, (6S,7R,8R)-[6,7,8,9-Tetrahydro-7-hydroxy-2,3-dimethyl-8-phenyl-6-propargyloxy-3H-imidazo[4,5-h]quinoline-5-yl]-carboxylic acid methylamide] | > 15% |
| CNC(=O)c1cc2c(nc(C)n2C)c2c1[C@@H](CC(F)F)[C@@H](O)[C@@H](c1ccccc1)N2 [Example 10, (6R,7R,8R)-[7-Hydroxy-2,3-dimethyl-8-phenyl-6-(2,2-difluoroethyl)-6,7,8,9-tetrahydro-3H-imidazo[4,5-h]quinoline-5-yl]-carboxylic acid methylamide] | > 15% |
| CNC(=O)c1cc2c(nc(C)n2C)c2c1C[C@@H](O)[C@@H](c1ccccc1)N2 [Example 11, (7R,8R)-[7-Hydroxy-2,3-dimethyl-8-phenyl-6,7,8,9-tetrahydro-3H-imidazo[4,5-h]quinoline-5-yl]-carboxylic acid methylamide] | > 15% |
| Cc1nc2c3c(c(C(=O)N(C)C)cc2n1C)C(O)[C@H](O)[C@@H](c1ccccc1)N3 (stereo partly drawn) [Example 12, (7R,8R)-[6,7-Dihydroxy-2,3-dimethyl-8-phenyl-6,7,8,9-tetrahydro-3H-imidazo[4,5-h]quinoline-5-yl]carboxylic acid dimethylamide] | > 15% |
| CCCCO[C@H]1c2c(C(=O)N(C)C)cc3c(nc(C)n3C)c2N[C@H](c2ccccc2)[C@H]1O [Example 13, (6S,7R,8R)-[6-n-Butyloxy-7-hydroxy-2,3-dimethyl-8-phenyl-6,7,8,9-tetrahydro-3H-imidazo[4,5-h]quinoline-5-yl]-carboxylic acid dimethylamide] | > 15% |
| CCCCO[C@@H]1c2c(C(=O)N(C)C)cc3c(nc(C)n3C)c2N[C@H](c2ccccc2)[C@H]1O [Example 14, (6R,7R,8R)-[6-n-Butyloxy-7-hydroxy-2,3-dimethyl-8-phenyl-6,7,8,9-tetrahydro-3H-imidazo[4,5-h]quinoline-5-yl]-carboxylic acid dimethylamide] | > 15% |
| Cc1nc2c3c(c(C(=O)N(C)C)cc2n1C)C[C@@H](O)[C@@H](c1ccccc1)N3 [Example 15, (7R,8R)-[7-Hydroxy-2,3-dimethyl-8-phenyl-6,7,8,9-tetrahydro-3H-imidazo[4,5-h]quinoline-5-yl]-carboxylic acid dimethylamide] | > 15% |

Tested on: not given
Test: not given
Settings: not given

| SMILES | melting point |
| --- | --- |
| CNC(=O)c1cc2c(nc(C)n2C)c2c1C[C@@H](O)[C@@H](c1ccccc1)N2 [Example 11, (7R,8R)-[7-Hydroxy-2,3-dimethyl-8-phenyl-6,7,8,9-tetrahydro-3H-imidazo[4,5-h]quinoline-5-yl]-carboxylic acid methylamide] | 265 to 268 °C |
